From patent US10308689B2, “Dengue virus (DV) polypeptide sequences, T cell epitopes and methods and uses thereof” (LA JOLLA INSTITUTE FOR ALLERGY AND IMMUNOLOGY, priority 2010, dated 2019)

Tested on: PBMC of healthy adult blood donors from Colombo, Sri Lanka
Test: Ex vivo IFNγ ELISPOT, HLA-matched PBMC of Sri Lankan blood donors
Format: cell-based, human
Parameters: Total Response per epitope: unit not given here
Details: for # donors responded: number of donors responding to the epitope
[1] = restricting HLA allele and serotype as given
[2] = total over responding donors, restricting HLA allele and serotype as given
[3] = HLA allele, supertype and serotype
[4] = summed IFNγ ELISPOT response per epitope, HLA allele and serotype as given

Structure (SMILES) | # donors responded [1] | Total Response per epitope [2] | # donors responded [3] | Total Response per epitope [4] | further results
CC[C@H](C)[C@H](NC(=O)[C@H](CO)NC(=O)[C@H](CCCCN)NC(=O)[C@H](CCCNC(=N)N)NC(=O)CNC(=O)[C@H](CO)NC(=O)[C@H](C)NC(=O)[C@@H](N)Cc1ccccc1)C(=O)N[C@H](C(=O)N[C@@H](CC(C)C)C(=O)O)[C@@H](C)O | 1 | 26.7 | – | – | –
CC[C@H](C)[C@H](NC(=O)[C@H](C)NC(=O)CNC(=O)[C@@H](N)Cc1ccccc1)C(=O)N[C@@H](Cc1ccc(O)cc1)C(=O)NCC(=O)N[C@@H](C)C(=O)N[C@@H](C)C(=O)N[C@@H](Cc1ccccc1)C(=O)O | 3 | 798.3 | – | – | –
CC[C@H](C)[C@H](NC(=O)[C@@H]1CCCN1C(=O)[C@H](C)NC(=O)[C@H](CC(N)=O)NC(=O)[C@H](CO)NC(=O)[C@H](CCC(N)=O)NC(=O)[C@@H]1CCCN1C(=O)[C@@H](N)Cc1ccccc1)C(=O)N[C@@H](CCSC)C(=O)N[C@@H](CC(=O)O)C(=O)O | 4 | 716.7 | – | – | –
CC(C)C[C@H](NC(=O)[C@H](CO)NC(=O)[C@H](CC(N)=O)NC(=O)[C@H](CCC(=O)O)NC(=O)[C@H](CCCNC(=N)N)NC(=O)[C@H](CO)NC(=O)[C@@H](N)Cc1ccccc1)C(=O)N[C@@H](CO)C(=O)NCC(=O)N[C@H](C(=O)O)C(C)C | 1 | 101.7 | – | – | –
CC[C@H](C)[C@H](NC(=O)[C@H](C)NC(=O)[C@H](C)NC(=O)[C@H](CCSC)NC(=O)[C@@H](NC(=O)[C@@H](NC(=O)[C@@H](N)Cc1ccccc1)[C@@H](C)O)[C@@H](C)CC)C(=O)N[C@@H](CC(C)C)C(=O)N[C@@H](C)C(=O)N[C@@H](Cc1ccc(O)cc1)C(=O)O | 2 | 675.0 | – | – | –
CC[C@H](C)[C@H](NC(=O)[C@H](C)NC(=O)[C@H](CC(C)C)NC(=O)[C@H](CS)NC(=O)[C@H](CC(C)C)NC(=O)[C@@H](NC(=O)CNC(=O)[C@H](CCSC)NC(=O)[C@@H](NC(=O)[C@@H](N)Cc1ccccc1)[C@@H](C)O)C(C)C)C(=O)O | 1 | 58.3 | – | – | –
CSCC[C@H](NC(=O)[C@@H](NC(=O)[C@@H](N)Cc1ccccc1)[C@@H](C)O)C(=O)N[C@@H](CCCNC(=N)N)C(=O)N[C@@H](Cc1c[nH]cn1)C(=O)N[C@@H](CCCCN)C(=O)N[C@@H](CCCCN)C(=O)N[C@@H](C)C(=O)N[C@H](C(=O)N[C@@H](Cc1ccc(O)cc1)C(=O)O)[C@@H](C)O | 4 | 1723.3 | – | – | T cell response [SFC] (per epitope, ex vivo IFNγ SFC/10^6 PBMC): 1723 SFC; # of responders (responding donors, HLA allele(s)): 4
CC[C@H](C)[C@H](NC(=O)[C@@H]1CCCN1C(=O)[C@H](CCC(=O)O)NC(=O)[C@H](CCC(=O)O)NC(=O)[C@H](Cc1c[nH]cn1)NC(=O)CNC(=O)[C@@H]1CCCN1C(=O)CN)C(=O)N1CCC[C@H]1C(=O)N[C@@H](CCSC)C(=O)O | 3 | 235.0 | – | – | –
CC(C)C[C@H](NC(=O)[C@H](CCC(=O)O)NC(=O)[C@H](CC(C)C)NC(=O)[C@H](CCCCN)NC(=O)CNC(=O)[C@H](CC(C)C)NC(=O)[C@H](Cc1c[nH]cn1)NC(=O)[C@H](Cc1c[nH]c2ccccc12)NC(=O)[C@@H]1CCCN1C(=O)CN)C(=O)O | 2 | 495.0 | – | – | –
CSCC[C@H](NC(=O)[C@H](CCC(=O)O)NC(=O)[C@H](CC(C)C)NC(=O)[C@H](CCCCN)NC(=O)CNC(=O)[C@H](CC(C)C)NC(=O)[C@H](Cc1c[nH]cn1)NC(=O)[C@H](Cc1c[nH]c2ccccc12)NC(=O)[C@@H]1CCCN1C(=O)CN)C(=O)O | 3 | 90.0 | – | – | –
CC[C@H](C)[C@H](NC(=O)[C@@H](NC(=O)[C@H](Cc1ccccc1)NC(=O)CNC(=O)[C@@H]1CCCN1C(=O)[C@@H](N)Cc1c[nH]cn1)[C@@H](C)O)C(=O)N[C@@H](CC(C)C)C(=O)N[C@@H](C)C(=O)N[C@@H](CC(C)C)C(=O)N[C@@H](Cc1ccccc1)C(=O)O | 9 | 3763.3 | – | – | –
CC[C@H](C)[C@H](N)C(=O)N[C@@H](C)C(=O)N[C@@H](CC(N)=O)C(=O)N[C@@H](CCC(N)=O)C(=O)N[C@@H](C)C(=O)N[C@H](C(=O)N[C@H](C(=O)N[C@@H](CC(C)C)C(=O)N[C@@H](CCSC)C(=O)O)C(C)C)[C@@H](C)O | 7 | 1518.3 | – | – | –
CC[C@H](C)[C@H](NC(=O)[C@H](C)NC(=O)[C@H](C)NC(=O)[C@H](CCSC)NC(=O)[C@@H](NC(=O)[C@@H](N)[C@@H](C)O)[C@@H](C)CC)C(=O)N[C@@H](CC(C)C)C(=O)N[C@@H](C)C(=O)N[C@@H](Cc1ccc(O)cc1)C(=O)O | 1 | 20.0 | – | – | –
CC[C@H](C)[C@H](NC(=O)[C@@H](NC(=O)[C@H](CC(=O)O)NC(=O)[C@H](CCSC)NC(=O)[C@@H](NC(=O)[C@H](C)NC(=O)CNC(=O)[C@H](CCCCN)NC(=O)[C@@H]1CCCN1C(=O)[C@@H](N)[C@@H](C)O)C(C)C)[C@@H](C)CC)C(=O)O | – | – | 1 | 105.0 | –
CC(C)C[C@H](NC(=O)[C@H](CCC(N)=O)NC(=O)[C@H](CC(N)=O)NC(=O)[C@H](CC(=O)O)NC(=O)[C@H](CCC(N)=O)NC(=O)[C@@H]1CCCN1C(=O)[C@@H](N)[C@@H](C)O)C(=O)N[C@H](C(=O)N[C@@H](Cc1ccc(O)cc1)C(=O)O)[C@@H](C)O | – | – | 1 | 75.0 | –
CC[C@H](C)[C@H](NC(=O)[C@@H](NC(=O)[C@H](CC(=O)O)NC(=O)[C@H](CCSC)NC(=O)[C@@H](NC(=O)[C@@H](NC(=O)CNC(=O)[C@H](CCCNC(=N)N)NC(=O)[C@@H]1CCCN1C(=O)[C@@H](N)[C@@H](C)O)[C@@H](C)O)C(C)C)[C@@H](C)CC)C(=O)O | – | – | 1 | 331.7 | –
CC[C@H](C)[C@H](NC(=O)[C@H](C)NC(=O)[C@H](Cc1ccc(O)cc1)NC(=O)[C@H](Cc1c[nH]cn1)NC(=O)[C@@H](NC(=O)[C@@H](NC(=O)[C@H](CC(C)C)NC(=O)[C@H](CC(C)C)NC(=O)[C@H](CC(C)C)NC(=O)[C@@H](N)C(C)C)C(C)C)[C@@H](C)O)C(=O)O | – | – | 1 | 40.0 | –
CSCC[C@H](NC(=O)[C@H](CC(N)=O)NC(=O)[C@@H](NC(=O)[C@H](CO)NC(=O)[C@H](CO)NC(=O)[C@@H](N)C(C)C)C(C)C)C(=O)N[C@H](C(=O)N[C@@H](CO)C(=O)N[C@@H](CCCNC(=N)N)C(=O)N[C@@H](CC(C)C)C(=O)O)C(C)C | – | – | 1 | 421.7 | –
CC(C)C[C@H](NC(=O)[C@H](CCCNC(=N)N)NC(=O)[C@H](Cc1c[nH]cn1)NC(=O)[C@H](CC(=O)O)NC(=O)[C@H](CS)NC(=O)[C@H](CC(C)C)NC(=O)[C@H](CCC(N)=O)NC(=O)[C@@H](NC(=O)[C@H](Cc1ccc(O)cc1)NC(=O)[C@@H](N)C(C)C)[C@@H](C)O)C(=O)O | – | – | 1 | 21.7 | –
C[C@H](NC(=O)[C@@H](N)Cc1c[nH]c2ccccc12)C(=O)N[C@@H](Cc1ccc(O)cc1)C(=O)N[C@@H](Cc1c[nH]cn1)C(=O)NCC(=O)N[C@@H](CO)C(=O)N[C@@H](Cc1ccc(O)cc1)C(=O)N[C@@H](CCC(=O)O)C(=O)N[C@H](C(=O)O)[C@@H](C)O | – | – | 3 | 1220.0 | –
CC(C)C[C@H](NC(=O)CNC(=O)[C@H](C)NC(=O)CNC(=O)[C@H](C)NC(=O)[C@H](CC(C)C)NC(=O)[C@@H](N)Cc1ccc(O)cc1)C(=O)N[C@@H](C)C(=O)N[C@@H](Cc1ccccc1)C(=O)O | – | – | 3 | 340.0 | –
